Data as given in patent publication US20050256081A1, “Tetracycline derivatives for the treatment of ocular pathologies” (priority 2004, published 2005).
Several values for one entry are separate records, joined by “and”; a condition that tells them apart may be missing. Equal values may be shown once.

What was measured:
[1] = tested on: corneal neovascularization; assay: Silver nitrate cauterization corneal neovascularization model, two drug combinations (Example 3); type: in vivo, Long Evans rats; conditions: for effect on corneal neovascularization, individual agents: flurbiprofen 0.03% w/v, LMWH 10 mg/ml, administered as individual agents, data not shown
Description: Artificial corneal burns were induced in thirty-two eyes belonging to thirty-two Long Evans rats to determine the effects of doxycycline or another tetracycline derivative and low molecular weight heparin, doxycycline or another tetracycline derivative, and flurbiprofen, or flurbiprofen and low molecular weight heparin, on corneal neovascularization. All the eyes were examined to exclude any eyes with corneal scars and/or neovascularization prior to induction.
(§1) Neovascularization was induced in all eyes using silver nitrate cauterization. The animals were first anesthetized by intraperitoneal injection of a mixture of ketamine hydrochloride (25 mg/kg) with xylazine hydrochloride (5 mg/kg). The cornea was then anesthetized by a drop of 0.5% proparacaine and allowed to dry.
Group 1 (number of animals, n=8) received a 1:1 combination of 0.03% flurbiprofen sodium ophthalmic solution (Allergan, Irvine CA) and 10 mg/ml low molecular weight heparin (Enoxaparin, Aventis Pharmaceuticals Inc., Bridgewater N.J.); an actual concentration of 0.015% flurbiprofen with 5 mg/ml low molecular weight heparin. […] Group 3 (n=8) received a 1:1 combination of 20 mg/ml doxycycline and 10 mg/ml low molecular weight heparin; an actual concentration of 10 mg/ml doxycycline with 5 mg/ml low molecular weight heparin. Group 4 (n=8) received balanced salt solution (control). The drops were applied topically immediately after cauterization; treatments were administered two times per day for seven days.
The presence of new vessels (neovascularization) and the extent of new vessel formation was assessed by slit lamp photography and histology. Inhibition of vessel proliferation was evaluated by measuring vessel progression from the outer cornea (corneal limbus) into the comea. As previously described, it will be appreciated that any reduction of new vessel proliferation and/or regression of existing vessels is therapeutic, and that complete inhibition and/or regression is not required, and also that reduction includes regression of existing vessels.
The extent of corneal neovascularization was determined by slit lamp microscopy with photography (SL-7E, Topcon, Tokyo Japan) on day seven after cauterization. The animals were euthanized in a carbon dioxide chamber under deep general anesthesia. […]
Corneal neovascularization was assessed by scanning (Cano scan 9900F, Canon, Tokyo Japan) the slit lamp photographs into high resolution digital images. […] The percentage area of the cornea covered by the corneal scar in each eye was also determined. […]
Statistical analysis was performed using Statistical Analysis System (SPSS 11.5) software. The difference between the groups was determined using Mann-Whitney U Analysis test; a p value less than 0.05 was considered significant.

[2] = tested on: corneal neovascularization; assay: Silver nitrate cauterization corneal neovascularization model, single agents (Example 5); type: in vivo, Long Evans pigmented rats; conditions: for NV area compared to the control group (statistical significance): GLM with Tukey's studentized range test, significance at p≦0.05; for neovascularization on digitally enhanced slit lamp photograph: seven days after induction of corneal burn, FIG. 11; for Percent Area Of Neovascularization Mean ± SD: topical two times daily for 7 days, 7th day, ascomycin 50 μg/ml, flurbiprofen 0.03%, doxycycline 20 mg/ml, LMWH 10 mg/ml, triamcinolone acetonide 4 mg/ml
[3] = tested on: corneal neovascularization; assay: Inhibition of corneal neovascularization after silver nitrate/potassium nitrate corneal burn, graded by slit lamp photography and histology (Example 1); type: in vivo, rat; conditions: agent alone, topically applied twice a day; doxycycline about 1 to about 20 mg/ml, low molecular weight heparin about 10 mg/ml, triamcinolone about 4 mg/ml; compared to controls
Method: Artificial corneal burns were induced in rat eyes to determine the effects of doxycycline, steroids, and low molecular weight heparin, alone and in combinations, on corneal neovascularization.
The presence of new vessels (neovascularization) and the extent of new vessel formation was assessed by split lamp photography and histology. Inhibition of vessel proliferation was evaluated by measuring vessel progression from the outer cornea (corneal limbus) into the cornea. A numerical rating system was used to quantitate the degree of inhibition (+, ++, and +++ inhibition), with “+ inhibition” indicating inhibition one-third of the distance from the limbus of the cornea to the center; “++ inhibition” indicating inhibition two-thirds of the distance from the limbus to the center; “+++ inhibition” indicating complete inhibition of vessels between the limbus and the center; and the designation “± inhibition” indicating an intermediate degree of inhibition (e.g, less than +, ++, or +++) .

[4] = tested on: corneal neovascularization; assay: Silver nitrate cauterization corneal neovascularization model, doxycycline concentrations and pH (Example 4); type: in vivo, Long Evans pigmented rats; conditions: for Percent area of neovascularization (Mean ± SD): topical two times per day for seven days, n=6, monohydrate
Description: Thirty-six eyes belonging to thirty-six male Long Evans pigmented rats (200 g to 250 g) were divided into […] groups. Treated eyes were topically administered doxycycline at the following concentrations and having the indicated pH values: 0.05%^w/v (pH 3.3), 0.1%^w/v (pH 3.1), 1%^w/v (pH 2.3), 2%^w/v (pH 2.1), 2%^w/v (adjusted to pH of 7.4). One eye of each animal served as a treated eye and the other eye served as a non-treated control eye. Artificial corneal bums were induced. All the eyes were examined to exclude any eyes with corneal scars and/or neovascularization prior to induction.
as §1
The presence of new vessels (neovascularization) and the extent of new vessel formation was assessed by slit lamp photography and histology. Inhibition of vessel proliferation was evaluated by measuring vessel progression from the outer cornea (corneal limbus) into the cornea. As previously described, it will be appreciated that any reduction of new vessel proliferation and/or regression of existing vessels is therapeutic, and that complete inhibition and/or regression is not required, and also that reduction indudes regression of existing vessels.
Neovascularization was evaluated by an examiner who was blinded as to the treatment groups to minimize the observer bias.
The animals were euthanized in a carbon dioxide chamber under deep general anesthesia. The eyes were enucleated and fixed in 10% formaldehyde.
Corneal neovascularization was assessed by scanning (Cano scan 9900F, Canon, Tokyo Japan) the slit lamp photographs into high resolution digital images. […] The percentage area of the cornea covered by the corneal scar in each eye was also determined. A drawing of corneal blood vessels was made to compare with digital photos and ensure that no vascular area was omitted during calculation of percent area.
Statistical analyses were performed using each animal as an experimental unit with Statistical Analysis System (SPSS 11.5) software. Kruscal-Vallis and Mann-Whitney U Analysis was conducted and treatment means were separated at p<0.05 with least significant difference (LSD) test. A p value <0.05 was considered significant.
For histopathologic evaluation, sedated animals were euthanized with inhaled CO2 and enucleation was performed immediately. […] The eyes were prepared for histological examination using 10% formaldehyde. […] The corneas were then soaked in xylene and paraffin, and later embedded in paraffin and cut at […] for staining with hematoxylin and eosin (H&E) for light microscopy.
Light microscopic examination was performed on every microscopic section.

Molecule: CC(C(=O)[O-])c1ccc(-c2ccccc2)c(F)c1.O.O.[Na+] (racemic) [flurbiprofen, sodium (±)-2-(2-fluoro-4-biphenylyl)-propionate dihydrate]
- effect on corneal neovascularization, individual agents [1]: did not significantly decrease corneal neovascularization
- NV area compared to the control group (statistical significance) [2]: no statistically significant differences
- neovascularization on digitally enhanced slit lamp photograph [2]: neovascularization is quite prominent
- Percent Area Of Neovascularization Mean ± SD ([2]; dihydrate): 50.5%±18.7%
- Percent Area Of Neovascularization Mean ± SD ([2]; listed as Flurbiprofen, dihydrate): 50.6 ± 18.7%

Molecule: CC[C@@H]1/C=C(\C)C[C@H](C)C[C@H](OC)[C@H]2O[C@@](O)(C(=O)C(=O)N3CCCC[C@H]3C(=O)O[C@H](/C(C)=C/[C@@H]3CC[C@@H](O)[C@H](OC)C3)[C@H](C)[C@@H](O)CC1=O)[C@H](C)C[C@@H]2OC [ascomycin]
- NV area compared to the control group (statistical significance) [2]: no statistically significant differences
- Percent Area Of Neovascularization Mean ± SD [2]: 56.0%±22.4%
- Percent Area Of Neovascularization Mean ± SD ([2]; listed as Ascomycin): 56.0 ± 22.4%

Molecule: low molecular weight heparin
- inhibition of neovascularization [3]: +
- effect on corneal neovascularization, individual agents [1]: did not significantly decrease corneal neovascularization
- NV area compared to the control group (statistical significance) [2]: no statistically significant differences
- Percent Area Of Neovascularization Mean ± SD [2]: 66.7%±9.9% and 66.7 ± 9.9%

Molecule: CC1c2cccc(O)c2C(=O)C2=C(O)C3(O)C(=O)C(C(N)=O)=C(O)C(N(C)C)C3C(O)C21.O (centres unmarked) [doxycycline, 4-(dimethylamino)-1,4,4a,5,5a,6,11,12a-octahydro3,5,10,12,12a-pentahydroxy-6-methyl-1,11-dioxo-2-naphthacenecarboxamide monohydrate]
- inhibition of neovascularization [3]: +
- effect on corneal neovascularization, individual agent ([1]; doxycycline administered at 10 mg/ml): not when administered at 10 mg/ml
- effect on corneal neovascularization, individual agent ([1]; doxycycline administered at 20 mg/ml): did significantly inhibit
- histology (H&E), new vessels and inflammatory cells ([4]; 0.05% doxycycline, FIG. 8A): new vessels and inflammatory cells through the entire corneal stroma
- Percent area of neovascularization (Mean ± SD) ([4]; 0.05% w/v doxycycline, pH 3.3, listed as Doxycycline): 69.83 ± 17.98%
- Percent area of neovascularization (Mean ± SD) ([4]; 0.05% w/v doxycycline, pH 3.3): 69.8±17.9%
- histology (H&E), new vessels and inflammatory cells ([4]; 0.1% doxycycline, FIG. 8B): new vessels and inflammatory cells through the entire corneal stroma
- Percent area of neovascularization (Mean ± SD) ([4]; 0.1% w/v doxycycline, pH 3.1, listed as Doxycycline): 64.48 ± 14.04%
- Percent area of neovascularization (Mean ± SD) ([4]; 0.1% w/v doxycycline, pH 3.1): 64.5±14.0%
- histology (H&E), new vessels and inflammatory cells ([4]; 1% doxycycline, FIG. 8C): inflammatory cells and there was neovascularization in the stroma far from the corneal burn
- Percent area of neovascularization (Mean ± SD) ([4]; 1% w/v doxycycline, pH 2.3, listed as Doxycycline): 56.35 ± 20.84%
- Percent area of neovascularization (Mean ± SD) ([4]; 1% w/v doxycycline, pH 2.3): 56.3±20.8%
- histology (H&E), new vessels and inflammatory cells ([4]; 2% doxycycline adjusted to a substantially neutral pH, FIG. 8E): fewer inflammatory cells and less neovascularization in the stroma than eyes administered 1% doxycycline
- histology (H&E), new vessels and inflammatory cells ([4]; 2% doxycycline not pH adjusted, FIG. 8D): fewer inflammatory cells and less neovascularization in the stroma than eyes administered 1% doxycycline
- mean percentage area of neovascularization, 2% doxycycline pH neutralized compared with 2% doxycycline not adjusted for pH ([4]; 2% doxycycline, pH neutralized): significantly less
- Percent area of neovascularization (Mean ± SD) ([4]; 2% w/v doxycycline adjusted to pH 7.4, listed as Doxycycline): 36.2 ± 4.3%
- Percent area of neovascularization (Mean ± SD) ([4]; 2% w/v doxycycline adjusted to pH 7.4): 36.2±4.3%
- Percent area of neovascularization (Mean ± SD) ([4]; 2% w/v doxycycline, pH 2.1 (not adjusted for pH), listed as Doxycycline): 54.78 ± 5.95%
- Percent area of neovascularization (Mean ± SD) ([4]; 2% w/v doxycycline, pH 2.1 (not adjusted for pH)): 54.7±5.9%
- NV area compared to the control group (statistical significance) [2]: significant reduction
- neovascularization on digitally enhanced slit lamp photograph [2]: neovascularization is less prominent than in control group
- Percent Area Of Neovascularization Mean ± SD ([2]; listed as Doxycycline, monohydrate): 35.5 ± 29.1%
- Percent Area Of Neovascularization Mean ± SD ([2]; monohydrate): 35.5%±29.1%
